From PMC10623575, “Discovery of Potent and Selective CB2 Agonists Utilizing a Function-Based Computational Screening Protocol” (ACS Chemical Neuroscience, 2023)
Read-outs that look alike come from different tables or passages of the source.

Key:
[1] = target: CB1 receptor (Homo sapiens, UniProt P21554); test: Calcium mobilization assay, agonist mode, CHO expressing CB1 and Gα16; type: cell-based; details: agonist activity, CHO expressing CB1, mean ± SEM; read-out: CB1 EC50
Experimental: (§1) Chinese hamster ovarian (CHO) cells collected from the American Type Culture Collection were maintained in Ham’s F-12K (Kaighn’s) supplemented with 100 mg/L streptomycin, 100 mg/L penicillin, and 10% fetal bovine serum (FBS) in a humidified atmosphere of 5% CO2 at 37 °C. CHO cells were co-transfected with plasmids encoding CB1 or CB2 and Gα16 by electroporation. To establish stable cell lines, transfected cells were seeded on 10 cm dishes with 40 μg/mL blasticidin and 1 mg/mL G418 in culture medium after 24 h. The selection medium was substituted once every 3 days until colonies formed. A solitary colony was obtained, propagated, and assessed using a calcium mobilization assay to verify the function and expression of the transfected genes.
(§2) 3 × 10^4 cells/well were employed to seed cells onto 96-well plates, which were subsequently incubated throughout the night. […] For antagonist mode, the extra dye was washed out and 50 μL of HBSS with test compounds, DMSO (negative control), or AM630 (positive control) was introduced. […] To be noticed, each experiment has been independently replicated three times, with three repetitions and eight gradients each time.
(§3) The collected data were processed with GraphPad Prism software (GraphPad). […] Means ± SEM were computed utilizing this software. The analyses were evaluated by the Student t test. When the p value is smaller than 0.05, the result is statistically significant.

[2] = target: T1, CB2 receptor (Homo sapiens, UniProt P34972); test: Calcium mobilization assay, agonist mode, CHO expressing CB2 and Gα16; type: cell-based; details: for SI, selectivity index for the CB2, SI = EC50(CB1)/EC50(CB2): agonist mode
T1 construct: expressed in transfected cells
Experimental: as §1, §2, §3

[3] = agonist activity, CHO expressing CB2, three independent assays, mean ± SEM, read-out: CB2 EC50
[4] = single independent experiment, replicate 1, read-out: CB2 agonist(μM) replicate 1
[5] = single independent experiment, replicate 2, read-out: CB2 agonist(μM) replicate 2
[6] = single independent experiment, replicate 3, read-out: CB2 agonist(μM) replicate3

T1 sequence (P34972 whole entry): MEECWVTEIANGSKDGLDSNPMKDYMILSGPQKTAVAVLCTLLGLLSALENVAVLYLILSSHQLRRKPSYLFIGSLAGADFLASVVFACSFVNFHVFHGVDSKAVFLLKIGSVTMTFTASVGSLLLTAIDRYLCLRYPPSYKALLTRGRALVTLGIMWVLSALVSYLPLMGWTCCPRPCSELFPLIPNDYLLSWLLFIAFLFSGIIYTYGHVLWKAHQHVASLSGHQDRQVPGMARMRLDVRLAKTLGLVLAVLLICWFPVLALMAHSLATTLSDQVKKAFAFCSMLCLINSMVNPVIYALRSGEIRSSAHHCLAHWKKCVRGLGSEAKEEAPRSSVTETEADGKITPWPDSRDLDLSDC
Chain of CB1 receptor (P21554 whole entry): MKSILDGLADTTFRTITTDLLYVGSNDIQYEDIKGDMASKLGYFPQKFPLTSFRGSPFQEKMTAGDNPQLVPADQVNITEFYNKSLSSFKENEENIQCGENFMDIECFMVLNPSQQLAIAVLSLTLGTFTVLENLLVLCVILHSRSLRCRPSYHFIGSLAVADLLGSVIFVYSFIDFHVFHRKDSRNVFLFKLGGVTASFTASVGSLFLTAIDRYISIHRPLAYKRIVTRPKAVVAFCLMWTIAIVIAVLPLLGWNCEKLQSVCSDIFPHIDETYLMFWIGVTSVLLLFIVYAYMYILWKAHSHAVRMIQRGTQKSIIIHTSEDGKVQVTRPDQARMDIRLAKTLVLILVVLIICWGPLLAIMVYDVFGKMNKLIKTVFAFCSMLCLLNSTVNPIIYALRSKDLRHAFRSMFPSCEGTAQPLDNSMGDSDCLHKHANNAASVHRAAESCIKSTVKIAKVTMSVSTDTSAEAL

EC50 [1] [µM] | CB1 and CB2 biological activity (in words) ([2]; CB1 and CB2 calcium mobilization assays, up to 10 μM) | EC50 [2, 3] [µM] | SI, selectivity index for the CB2, SI = EC50(CB1)/EC50(CB2) [2] | EC50 [2, 4] [µM] | EC50 [2, 5] [µM] | EC50 [2, 6] [µM] | SMILES
> 10 | no bioactivity | > 10 |  |  |  |  | O=C1SC(=Cc2ccccc2OCc2ccccc2F)C(=O)N1C1CCCC1 [Compound 12, 3-Cyclopentyl-5-(2-((2-fluorobenzyl)oxy)benzylidene)thiazolidine-2,4-dione]
> 10 |  | 1.78 ± 0.25 | >5 | 1.66 | 2.26 | 1.44 | CC(C)CN1C(=O)SC(=Cc2ccccc2OC(=O)c2ccccc2F)C1=O [Compound 13, 2-((3-Isobutyl-2,4-dioxothiazolidin-5-ylidene)methyl)phenyl 2-Fluorobenzoate]
> 10 |  | > 10 |  |  |  |  | CCCCCCCC(=O)Oc1ccccc1C=C1SC(=O)N(CC(C)C)C1=O [Compound 14, 2-((3-Isobutyl-2,4-dioxothiazolidin-5-ylidene)methyl) Phenyl Octanoate]
> 10 |  | 1.58 ± 1.12 | >6 | 0.486 | 3.82 | 0.43 | CC(C)CN1C(=O)SC(=Cc2ccccc2OC(=O)N2CCOCC2)C1=O [Compound 15, 2-((3-Isobutyl-2,4-dioxothiazolidin-5-ylidene)methyl)phenyl Morpholine-4-carboxylate]
> 10 |  | 1.51 ± 0.29 | >6 | 0.949 | 1.89 | 1.69 | CC(C)CN1C(=O)S/C(=C\c2ccccc2OC(=O)C(C)(C)CCl)C1=O [Compound 16, 2-((3-Isobutyl-2,4-dioxothiazolidin-5-ylidene)methyl) Phenyl 3-Chloro-2,2-dimethylpropanoate]
> 10 |  | 0.66 ± 0.34 | >15 | 0.166 | 1.31 | 0.489 | CC(C)N1C(=O)SC(=Cc2ccccc2OC(=O)N2CCOCC2)C1=O [Compound 17, 2-((3-Isopropyl-2,4-dioxothiazolidin-5-ylidene)methyl)phenyl Morpholine-4-carboxylate]
> 10 |  | 3.64 ± 1.14 | >2 | 4.96 | 4.58 | 1.38 | CC(C)N1C(=O)S/C(=C\c2ccccc2OC(=O)c2ccccc2F)C1=O [Compound 18, 2-((3-Isopropyl-2,4-dioxothiazolidin-5-ylidene)methyl) Phenyl 2-Fluoro Benzoate]
> 10 |  | > 10 |  |  |  |  | CC(C)N1C(=O)S/C(=C\c2ccccc2OC(=O)C23CC4CC(CC(C4)C2)C3)C1=O [Compound 19, 2-((3-Isopropyl-2,4-dioxothiazolidin-5-ylidene) Methyl) Phenyl (3r,5r,7r)-Adamantane-1-carboxylate]
> 10 |  | > 10 |  |  |  |  | CCCCCCCC(=O)Oc1ccccc1/C=C1\SC(=O)N(C(C)C)C1=O [Compound 20, 2-((3-Isopropyl-2,4-dioxothiazolidin-5-ylidene) Methyl) Phenyl Octanoate]
> 10 |  | 2.33 ± 0.45 | >4 | 1.46 | 2.61 | 2.93 | CC(C)N1C(=O)SC(=Cc2ccccc2OC(=O)C(C)(C)CCl)C1=O [Compound 21, 2-((3-Isopropyl-2,4-dioxothiazolidin-5-ylidene)methyl)phenyl 3-Chloro-2,2-dimethylpropanoate]
> 10 |  | 4.12 ± 1.31 | >2 | 2.19 | 6.61 | 3.56 | CC(C)N1C(=O)SC(=Cc2ccccc2OC(=O)C2CC2)C1=O [Compound 22, 2-((3-Isopropyl-2,4-dioxothiazolidin-5-ylidene)methyl)phenyl Cyclopropane Carboxylate]
> 10 |  | 0.82 ± 0.41 | >12 | 0.225 | 0.638 | 1.6 | CC(C)N1C(=O)SC(=Cc2ccccc2OC(=O)C2CCCCCC2)C1=O [Compound 23, 2-((3-Isopropyl-2,4-dioxothiazolidin-5-ylidene)methyl)phenyl Cycloheptane Carboxylate]
> 10 |  | 3.93 ± 1.97 | >2 | 7.84 | 2.4 | 1.54 | CC(C)N1C(=O)SC(=Cc2ccccc2OC(=O)c2ccc(Cl)nc2)C1=O [Compound 24, 2-((3-Isopropyl-2,4-dioxothiazolidin-5-ylidene)methyl)phenyl 6-Chloronico Tinate]
> 10 |  | > 10 |  |  |  |  | CC(C)N1C(=O)SC(=Cc2cccc(OCc3ccccc3C#N)c2)C1=O [Compound 25, 2-((3-((3-Isopropyl-2,4-dioxothiazolidin-5-ylidene)methyl)phenoxy)methyl) Benzonitrile]
> 10 |  | > 10 |  |  |  |  | CC(C)CN1C(=O)SC(=Cc2cccc(OCc3ccccc3C#N)c2)C1=O [Compound 26, 2-((3-((3-Isobutyl-2,4-dioxothiazolidin-5-ylidene)methyl)phenoxy)methyl) Benzonitrile]
> 10 |  | 2.96 ± 2.3 | >3 | 0.637 | 7.56 | 0.693 | COc1ccc(C=C2SC(=O)N(C(C)C)C2=O)cc1OC(=O)c1cccc(Br)c1 [Compound 28, 5-((3-Isopropyl-2,4-dioxothiazolidin-5-ylidene)methyl)-2-methoxyphenyl 3-Bromobenzoate]
> 10 |  | > 10 |  |  |  |  | COc1ccc(C=C2SC(=O)N(C(C)C)C2=O)cc1OC(=O)c1ccccc1F [Compound 29, 5-((3-Isopropyl-2,4-dioxothiazolidin-5-ylidene)methyl)-2-methoxyphenyl 2-Fluorobenzoate]
> 10 |  | > 10 |  |  |  |  | COc1ccc(/C=C2\SC(=O)N(C(C)C)C2=O)cc1OC(=O)c1ccc(CCl)cc1 [Compound 30, 5-((3-Isopropyl-2,4-dioxothiazolidin-5-ylidene) Methyl)-2-methoxyphenyl 4-(Chloromethyl) Benzoate]
> 10 |  | 3.38 ± 2.15 | >3 | 0.814 | 1.68 | 7.65 | COc1ccc(C=C2SC(=O)N(C(C)C)C2=O)cc1OC(=O)C(C)(C)CCl [Compound 31, 5-((3-Isopropyl-2,4-dioxothiazolidin-5-ylidene) Methyl)-2-methoxyphenyl 3-Chloro-2,2-dimethylpropanoate]
> 10 |  | 0.83 ± 0.65 | >12 | 0.093 | 0.287 | 2.12 | COc1ccc(/C=C2\SC(=O)N(C(C)C)C2=O)cc1OC(=O)C12CC3CC(CC(C3)C1)C2 [Compound 32, 5-((3-Isopropyl-2,4-dioxothiazolidin-5-ylidene) Methyl)-2-methoxyphenyl (3r, 5r, 7r)-Adamantane-1-carboxylate]
> 10 |  | > 10 |  |  |  |  | CCCC(=O)Oc1cc(C=C2SC(=O)N(C(C)C)C2=O)ccc1OC [Compound 33, 5-((3-Isopropyl-2,4-dioxothiazolidin-5-ylidene)methyl)-2-methoxyphenylbuty Rate]
> 10 |  | > 10 |  |  |  |  | COc1ccc(C=C2SC(=O)N(CC(C)C)C2=O)cc1OC(=O)c1cccc(Br)c1 [Compound 35, 5-((3-Isobutyl-2,4-dioxothiazolidin-5-ylidene)methyl)-2-methoxyphenyl 3-Bromobenzoate]
> 10 |  | > 10 |  |  |  |  | COc1ccc(C=C2SC(=O)N(CC(C)C)C2=O)cc1OC(=O)c1ccc(CCl)cc1 [Compound 36, 5-((3-Isobutyl-2,4-dioxothiazolidin-5-ylidene)methyl)-2-methoxyphenyl 4-(Chloromethyl)benzoate]

SMILES | EC50 [1] [µM] | CB1 and CB2 biological activity (in words) ([2]; CB1 and CB2 calcium mobilization assays, up to 10 μM) | EC50 [2, 3] [µM] | SI, selectivity index for the CB2, SI = EC50(CB1)/EC50(CB2) [2] | EC50 [2, 4] [µM] | EC50 [2, 5] [µM] | EC50 [2, 6] [µM]
N#Cc1ccccc1COc1cccc(C=C2SC(=O)N(C3CCCC3)C2=O)c1 [Compound 27, 2-((3-((3-Cyclopentyl-2,4-dioxothiazolidin-5-ylidene)methyl)phenoxy)methyl) Benzonitrile] | > 10 |  | > 10 |  |  |  | 
COc1ccc(C=C2SC(=O)N(CC(C)C)C2=O)cc1OC(=O)C(C)(C)CCl [Compound 34, 5-((3-Isobutyl-2,4-dioxothiazolidin-5-ylidene)methyl)-2-methoxyphenyl 3-Chloro-2,2-dimethylpropanoate] | > 10 |  | > 10 |  |  |  | 
COc1ccc(/C=C2\SC(=O)N(CC(C)C)C2=O)cc1OC(=O)C12CC3CC(CC(C3)C1)C2 [Compound 37, 5-((3-Isobutyl-2,4-dioxothiazolidin-5-ylidene)methyl)-2-methoxyphenyl (3r, 5r,7r)-adamantane-1-carboxylate] | > 10 |  | > 10 |  |  |  | 
